# Results from patent US11369611B2, “Therapeutic compounds and uses thereof” (Kala Pharmaceuticals, Inc., priority 2013, dated 2022).
# Assays:
# [1] = Particle size of compounds milled with PLURONIC F127 as MPP (dynamic light scattering); assay type: physicochemical; details: formulated as MPP, milled with PLURONIC F127, DPBS buffered
# Source text: The compounds of the present invention synthesized in accordance with the preceding Examples were formulated as mucus penetrating particles (MPP). Specifically, Compound 4 of Example 1, Compound 9 of Example 2, and Compound 13 of Example 3 were each milled in the presence of PLURONIC F127 (F127) to determine whether F127 1) aids particle size reduction to several hundreds of nanometers and 2) physically (non-covalently) coats the surface of generated nanoparticles with a mucoinert coating that would minimize particle interactions with mucus constituents and prevent mucus adhesion.
# A milling procedure was employed in which an aqueous dispersion containing coarse drug particles and PLURONIC F127 (F127) was milled with grinding medium until particle size was reduced below 400 nm as measured by dynamic light scattering. Table 4 lists the size of particles and polydispersity index (a measure of the width of the particle size distribution) generated using this technique. In this example suspensions were buffered using DPBS (Dulbecco's Phosphate-Buffered Saline) which yields a suspension that is both isotonic and has a physiologically relevant pH.
# [2] = Draize ocular irritation assessment; assay type: in vivo; details: MPP 0.5%, 50 μL topical BID 5 days, Dutch-belted rabbits
# Source text: Dutch-belted rabbits were used in these studies.
structure (smiles),measurement,setting,value
"COc1cc2c(Oc3ccc4[nH]c(C)cc4c3F)ncnc2cc1OCCCN1CCC2(CC1)COC2 [Compound 4, 7-(3-(4-(4-fluoro-2-methyl-1H-indol-5-yloxy)-6-methoxyquinazolin-7-yloxy)propyl)-2-oxa-7-azaspiro[3.5]nonane]",Particle Size,[1],270 nm
same,Draize-Ocular Irritation,[2],no irritation was seen
